This note sets out measurements from PubChem BioAssay AID242 (DTP/NCI, 2004).

Values joined by “and” are separate entries in the source; they are usually repeats but may differ in a detail not shown here. Equal entries are not always repeated. Toxic doses and inconclusive results are not listed.

The assay concerns BDF1 mice, Lymphoma 8 ip, survival T/C. The experiment in a line: NCI In Vivo Anticancer Drug Screen. Data for tumor model Lymphoma 8 (intraperitoneal) in B6D2F1 (BDF1) mice. Conditions: higher = longer survival. On the procedure: The antitumor activity of compounds was measured in mice bearing transplantable tumors. Survival or tumor size were measured and the results are expressed as the measurement made in the treated group (T) divided by the measurement made in the vehicle treated control group (C). The tumor model used in this assay is Lymphoma 8 (intraperitoneal) in B6D2F1 (BDF1) mice

The mark [1] stands for this setting: endpoint: survival time, mean or median, dose: 31.3 mg/kg/injection, schedule: Q01DX010 (ip), vehicle: saline.
Setting [2] is: endpoint: survival time, mean or median, dose: 62.5 mg/kg/injection, schedule: Q01DX010 (ip), vehicle: saline.
Setting [3] is: endpoint: survival time, mean or median, dose: 125.0 mg/kg/injection, schedule: Q01DX010 (ip), vehicle: saline.
The mark [4] stands for this setting: endpoint: survival time, mean or median, dose: 0.5 mg/kg/injection, schedule: Q01DX010 (ip), vehicle: saline.
The mark [5] stands for this setting: endpoint: survival time, mean or median, dose: 250.0 mg/kg/injection, schedule: Q01DX010 (ip), vehicle: saline.
[6] abbreviates: endpoint: survival time, mean or median, dose: 5.0 mg/kg/injection, schedule: Q01DX010 (ip), vehicle: saline.
[7] abbreviates: endpoint: survival time, mean or median, dose: 20.0 mg/kg/injection, schedule: Q01DX010 (ip), vehicle: saline.
[8] abbreviates: endpoint: survival time, mean or median, dose: 40.0 mg/kg/injection, schedule: Q01DX010 (ip), vehicle: saline.
Where [9] appears, read: endpoint: survival time, mean or median, dose: 80.0 mg/kg/injection, schedule: Q01DX010 (ip), vehicle: saline.

On to `COc1ccc(CSc2ncnc3nc[nH]c23)cc1`, for which the T/C is 95 % of control (endpoint: survival time, mean or median, dose: 62.5 mg/kg/injection, schedule: Q01DX015 (ip), vehicle: carboxymethylcellulose (CMC)); 92 % of control (endpoint: survival time, mean or median, dose: 125.0 mg/kg/injection, schedule: Q01DX015 (ip), vehicle: carboxymethylcellulose (CMC)); 87 % of control (endpoint: survival time, mean or median, dose: 250.0 mg/kg/injection, schedule: Q01DX015 (ip), vehicle: carboxymethylcellulose (CMC)).

Turning to `O=C(O)c1[nH]c(=O)[nH]c(=O)c1F`, the T/C by setting is: (endpoint: survival time, mean or median, dose: 12.0 mg/kg/injection, schedule: Q01DX015 (ip), vehicle: carboxymethylcellulose (CMC)) 99 % of control; (endpoint: survival time, mean or median, dose: 12.5 mg/kg/injection, schedule: Q01DX015 (ip), vehicle: carboxymethylcellulose (CMC)) 98 % of control.

On to `CCCCNc1ncnc2c1cnn2C`, for which the T/C was 87 % of control and 95 % of control and 100 % of control under setting [1]; 86 % of control and 97 % of control and 100 % of control under setting [2]; 90 % of control under setting [3].

For the compound `CCn1cnc2c(=S)nc[nH]c21`, the T/C by setting is: (endpoint: survival time, mean or median, dose: 15.6 mg/kg/injection, schedule: Q01DX010 (ip), vehicle: saline) 91 % of control and 100 % of control; under setting [1], 100 % of control; under setting [2], 92 % of control and 100 % of control.

As for `CC(=O)OCC1OC(n2cnc3c(=S)nc(N)[nH]c32)C(OC(C)=O)C1OC(C)=O` (stereo unspecified), the T/C reads like this: (endpoint: survival time, mean or median, dose: 12.5 mg/kg/injection, schedule: Q01DX015 (ip), vehicle: other) 106 % of control; (endpoint: survival time, mean or median, dose: 25.0 mg/kg/injection, schedule: Q01DX015 (ip), vehicle: other) 107 % of control; (endpoint: survival time, mean or median, dose: 50.0 mg/kg/injection, schedule: Q01DX015 (ip), vehicle: other) 97 % of control.

For `CCCCOP(=S)(N1CC1)N1CC1`, the T/C reads like this: under setting [4], 100 % of control; (endpoint: survival time, mean or median, dose: 1.0 mg/kg/injection, schedule: Q01DX010 (ip), vehicle: saline) 103 % of control; (endpoint: survival time, mean or median, dose: 2.0 mg/kg/injection, schedule: Q01DX010 (ip), vehicle: saline) 106 % of control; (endpoint: survival time, mean or median, dose: 4.0 mg/kg/injection, schedule: Q01DX010 (ip), vehicle: saline) 103 % of control.

`CCCSc1ncnc2nc[nH]c12`: the T/C under setting [1] is 100 % of control and 113 % of control; the T/C under setting [2] is 95 % of control and 100 % of control; the T/C under setting [3] is 95 % of control and 104 % of control; the T/C under setting [5] was 86 % of control.

For `C[C@@H]1C[C@@H]([C@H](O)CC2CC(=O)NC(=O)C2)C(=O)[C@@H](C)C1`, the T/C is, setting by setting: under setting [6], 115 % of control; (endpoint: survival time, mean or median, dose: 10.0 mg/kg/injection, schedule: Q01DX010 (ip), vehicle: saline) 105 % of control; under setting [7], 115 % of control; under setting [8], 120 % of control.

Turning to `C[C@@H]1C[C@H]2CC[C@H](O2)[C@H](C)C(=O)O[C@@H](C)C[C@@H]2CC[C@@H](O2)[C@@H](C)C(=O)O[C@H](C)C[C@H]2CC[C@H](O2)[C@H](C)C(=O)O[C@@H](C)C[C@@H]2CC[C@@H](O2)[C@@H](C)C(=O)O1`, the T/C runs as follows: (endpoint: survival time, mean or median, dose: 45.0 mg/kg/injection, schedule: Q01DX015 (ip), vehicle: other) 102 % of control; (endpoint: survival time, mean or median, dose: 90.0 mg/kg/injection, schedule: Q01DX015 (ip), vehicle: other) 94 % of control; (endpoint: survival time, mean or median, dose: 360.0 mg/kg/injection, schedule: Q01DX015 (ip), vehicle: other) 88 % of control.

Take `N=C(N)SCc1c2ccccc2c(CSC(=N)N)c2ccccc12`: the T/C is 106 % of control and 121 % of control (endpoint: survival time, mean or median, dose: 2.5 mg/kg/injection, schedule: Q01DX010 (ip), vehicle: saline); 113 % of control under setting [6]; 113 % of control and 114 % of control under setting [7].

Consider `OCC1OC(n2cnc3c(=S)nc[nH]c32)C(O)C1O` (stereo unspecified), for which the T/C is 104 % of control and 112 % of control under setting [7]; 100 % of control and 109 % of control and 112 % of control under setting [8]; 105 % of control and 118 % of control and 121 % of control under setting [9]; 93 % of control and 118 % of control (endpoint: survival time, mean or median, dose: 160.0 mg/kg/injection, schedule: Q01DX010 (ip), vehicle: saline).

Consider `CS(=O)(=O)OCCN(CCOS(C)(=O)=O)c1ccc(N=O)cc1`, for which the T/C (endpoint: survival time, mean or median, dose: 0.25 mg/kg/injection, schedule: Q01DX010 (ip), vehicle: saline) was 121 % of control; the T/C under setting [4] is 110 % of control; the T/C (endpoint: survival time, mean or median, dose: 63.0 micrograms/kg/injection, schedule: Q01DX010 (ip), vehicle: saline) was 113 % of control; the T/C (endpoint: survival time, mean or median, dose: 125.0 micrograms/kg/injection, schedule: Q01DX010 (ip), vehicle: saline) was 120 % of control; the T/C (endpoint: survival time, mean or median, dose: 500.0 micrograms/kg/injection, schedule: Q01DX010 (ip), vehicle: saline) is 123 % of control.

Consider `Nc1ccc(OC(=O)Oc2ccc(N)cc2)cc1`, for which the T/C runs as follows: (endpoint: survival time, mean or median, dose: 25.0 mg/kg/injection, schedule: Q01DX015 (ip), vehicle: saline) 105 % of control; (endpoint: survival time, mean or median, dose: 50.0 mg/kg/injection, schedule: Q01DX015 (ip), vehicle: saline) 91 % of control; (endpoint: survival time, mean or median, dose: 100.0 mg/kg/injection, schedule: Q01DX015 (ip), vehicle: saline) 111 % of control; (endpoint: survival time, mean or median, dose: 200.0 mg/kg/injection, schedule: Q01DX015 (ip), vehicle: saline) 106 % of control.

In the case of `Nc1nc(F)nc2c1ncn2C1OC(CO)C(O)C1O` (stereo unspecified), the T/C (endpoint: survival time, mean or median, dose: 0.75 mg/kg/injection, schedule: Q01DX015 (ip), vehicle: saline) was 88 % of control.

For the compound `N=[N+]=CC(=O)OCC(N)C(=O)O` (stereo unspecified), the T/C by setting is: (endpoint: survival time, mean or median, dose: 3.13 mg/kg/injection, schedule: Q01DX010 (ip), vehicle: saline) 116 % of control; (endpoint: survival time, mean or median, dose: 12.5 mg/kg/injection, schedule: Q01DX010 (ip), vehicle: saline) 150 % of control; (endpoint: survival time, mean or median, dose: 25.0 mg/kg/injection, schedule: Q01DX010 (ip), vehicle: saline) 87 % of control and 91 % of control.

As for `COc1cc(-c2ccc(Nc3ccccc3C(=O)O)c(OC)c2)ccc1N`, the T/C was 92 % of control and 100 % of control under setting [7]; 100 % of control under setting [8]; 92 % of control and 120 % of control under setting [9].

For `COc1cc([C@@H]2c3cc4c(cc3[C@H](O)[C@H]3COC(=O)[C@@H]23)OCO4)cc(OC)c1OC`, the T/C runs as follows: (endpoint: survival time, mean or median, dose: 10.0 mg/kg/injection, schedule: Q01DX015 (ip), vehicle: carboxymethylcellulose (CMC)) 98 % of control; (endpoint: survival time, mean or median, dose: 20.0 mg/kg/injection, schedule: Q01DX015 (ip), vehicle: carboxymethylcellulose (CMC)) 119 % of control.

Take `Nc1nc(=S)c2[nH]cnc2[nH]1`: the T/C (endpoint: survival time, mean or median, dose: 1.25 mg/kg/injection, schedule: Q01DX010 (ip), vehicle: other) was 120 % of control; the T/C (endpoint: survival time, mean or median, dose: 5.0 mg/kg/injection, schedule: Q01DX010 (ip), vehicle: other) is 115 % of control; the T/C (endpoint: survival time, mean or median, dose: 10.0 mg/kg/injection, schedule: Q01DX010 (ip), vehicle: other) was 110 % of control.

In the case of `OCC1OC(n2cnc3c(Cl)ncnc32)C(O)C1O` (stereo unspecified), the T/C reads like this: under setting [2], 90 % of control and 105 % of control; under setting [3], 95 % of control and 100 % of control and 105 % of control; under setting [5], 90 % of control and 95 % of control and 105 % of control; (endpoint: survival time, mean or median, dose: 500.0 mg/kg/injection, schedule: Q01DX010 (ip), vehicle: saline) 97 % of control and 104 % of control and 115 % of control.

Take `O=c1[nH]cc(F)c(=O)[nH]1`: the T/C is 155 % of control (endpoint: median survival time, dose: 28.8 mg/kg/injection, schedule: Q04DX003 (ip), vehicle: saline); 277 % of control (endpoint: median survival time, dose: 48.0 mg/kg/injection, schedule: Q04DX003 (ip), vehicle: saline); 331 % of control (endpoint: median survival time, dose: 80.0 mg/kg/injection, schedule: Q04DX003 (ip), vehicle: saline); 108 % of control and 114 % of control under setting [6]; 153 % of control and 158 % of control under setting [7].
